pIC50: −log10 of the molar value. Where a name gives a salt, the structure may show the parent alone.
Target: T1, Proton Pump (H^+,K^+-ATPase) (Sus scrofa, UniProt P19156)
T1 construct: gastric vesicles were isolated from porcine stomachs; from tissue; host or cells: porcine stomach (gastric vesicles)
Assay: Inhibitory activity on proton pump (H+,K+-ATPase) activity, porcine gastric vesicles, malachite green readout
Type: biochemical
Conditions: for pIC50: porcine gastric vesicles, pH 6.5, 8 mM KCl, 0.2 mM ATP; for inhibitory activity against proton pump activity: result in words
Description: Specifically, gastric vesicles were isolated from porcine stomachs, and the protein content of the vesicles was quantified using a BSA kit (Bio-Rad, 5000205). All reactions were performed in 96-well plates with a reaction volume of […] containing 100 ng of vesicles. 10 mM valinomycin and the test compound were added to reaction buffer (50 mM Tris-HEPES, 5 mM MgCl2, 8 mM KCl, pH 6.5) containing porcine gastric vesicles at various concentrations, and the mixture was incubated at 37°C for 30 minutes. DMSO or test compounds at different concentrations were added after diluting them to a final DMSO concentration of 0.1%. 0.2 mM adenosine triphosphate (ATP) was then added to the reaction buffer and incubated at 37°C for 20 minutes. The reaction was stopped with 0.2% Tween 20, followed by the addition of malachite green (Sigma Aldrich, MAK307) and incubation at room temperature for 30 minutes. The optical density (OD) value was measured at 620 nm using a microplate reader (Spectramax M5e, Molecular devices). The percent (%) inhibition was derived from the OD values of the control group and various concentrations of the test compounds. The IC50 of the test compounds was analyzed using nonlinear regression using the GraphPad Prism8 program using the % inhibition value at each concentration.

T1 sequence (P19156 2-1034 limits assumed): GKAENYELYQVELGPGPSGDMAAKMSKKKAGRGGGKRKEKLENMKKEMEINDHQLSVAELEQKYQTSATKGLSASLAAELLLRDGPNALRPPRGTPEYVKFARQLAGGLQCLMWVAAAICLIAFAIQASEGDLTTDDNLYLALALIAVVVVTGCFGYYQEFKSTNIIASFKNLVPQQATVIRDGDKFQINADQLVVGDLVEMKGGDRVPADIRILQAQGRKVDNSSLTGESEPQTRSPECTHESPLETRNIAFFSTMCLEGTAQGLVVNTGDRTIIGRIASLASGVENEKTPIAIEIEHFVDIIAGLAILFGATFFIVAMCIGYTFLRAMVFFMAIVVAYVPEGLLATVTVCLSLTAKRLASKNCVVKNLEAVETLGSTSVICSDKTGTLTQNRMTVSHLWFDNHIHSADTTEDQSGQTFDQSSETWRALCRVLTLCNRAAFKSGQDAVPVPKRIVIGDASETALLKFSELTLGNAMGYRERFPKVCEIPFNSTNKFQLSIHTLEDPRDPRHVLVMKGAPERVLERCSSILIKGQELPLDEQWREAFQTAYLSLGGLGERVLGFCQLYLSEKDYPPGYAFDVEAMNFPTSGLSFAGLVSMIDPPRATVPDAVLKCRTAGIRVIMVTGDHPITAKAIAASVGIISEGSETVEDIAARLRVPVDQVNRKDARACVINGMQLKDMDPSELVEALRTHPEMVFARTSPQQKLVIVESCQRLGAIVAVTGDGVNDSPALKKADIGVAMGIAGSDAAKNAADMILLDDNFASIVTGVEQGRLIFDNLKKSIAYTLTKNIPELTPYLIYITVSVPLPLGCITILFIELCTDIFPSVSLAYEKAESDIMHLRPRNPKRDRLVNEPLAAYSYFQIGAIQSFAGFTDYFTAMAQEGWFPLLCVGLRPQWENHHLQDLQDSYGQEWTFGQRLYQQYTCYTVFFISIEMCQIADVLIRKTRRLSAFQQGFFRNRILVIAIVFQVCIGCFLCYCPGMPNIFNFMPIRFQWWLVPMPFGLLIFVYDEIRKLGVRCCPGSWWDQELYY
T1 sequence (P18434 whole entry partner): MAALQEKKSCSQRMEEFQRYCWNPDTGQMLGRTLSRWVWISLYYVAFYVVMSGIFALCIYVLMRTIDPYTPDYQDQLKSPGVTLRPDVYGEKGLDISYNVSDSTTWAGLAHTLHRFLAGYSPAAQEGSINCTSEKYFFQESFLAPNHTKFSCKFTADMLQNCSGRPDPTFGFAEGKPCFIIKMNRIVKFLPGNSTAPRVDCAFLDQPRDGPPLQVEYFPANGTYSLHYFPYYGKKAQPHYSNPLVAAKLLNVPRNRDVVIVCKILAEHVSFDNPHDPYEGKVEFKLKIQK

| SMILES | pIC50 | inhibitory activity against proton pump activity |
| --- | --- | --- |
| Cc1cccc(C)c1CNc1cc(Br)cn2c(C)c(C)nc12 [Comparative Example 1, reference compound] | 6.30 to 7.00 | weak inhibitory activity |
| COC(=O)c1cc(NCc2c(C)cccc2C)c2nc(C)c(C)n2c1 [Comparative Example 2, reference compound] | < 6.30 | weak inhibitory activity |
| Cc1cccc(C)c1CNc1cc(NC(=O)C2CCCC2)cn2c(C)c(C)nc12 [Example 1, N-(8-((2,6-dimethylbenzyl)amino)-2,3-dimethylimidazo[1,2-a]pyridin-6-yl)cyclopentanecarboxamide] | 6.30 to 7.00 | – |
| Cc1cccc(C)c1CNc1cc(NC(=O)C2CCCCC2)cn2c(C)c(C)nc12 [Example 3, N-(8-((2,6-dimethylbenzyl)amino)-2,3-dimethylimidazo[1,2-a]pyridin-6-yl)cyclohexanecarboxamide] | < 6.30 | – |
| Cc1cccc(C)c1CNc1cc(NC(=O)C(C)C)cn2c(C)c(C)nc12 [Example 7, N-(8-((2,6-dimethylbenzyl)amino)-2,3-dimethylimidazo[1,2-a]pyridin-6-yl)isobutyramide] | 6.30 to 7.00 | – |
| Cc1cccc(C)c1CNc1cc(NC(=O)C(C)(C)C)cn2c(C)c(C)nc12 [Example 8, N-(8-((2,6-dimethylbenzyl)amino)-2,3-dimethylimidazo[1,2-a]pyridin-6-yl)pivalamide] | < 6.30 | – |
| Cc1cccc(C)c1CNc1cc(NC(=O)C(F)F)cn2c(C)c(C)nc12 [Example 9, N-(8-((2,6-dimethylbenzyl)amino)-2,3-dimethylimidazo [1,2-a]pyridin-6-yl)-2,2-difluoroacetamide] | < 6.30 | – |
| Cc1cccc(C)c1CNc1cc(NC(=O)CN)cn2c(C)c(C)nc12.Cl [Example 10, 2-amino-N-(8-((2,6-dimethylbenzyl)amino)-2,3-dimethylimidazo[1,2-a]pyridin-6-yl)acetamide hydrochloride] | > 7.30 | excellent inhibitory properties |
| Cc1cccc(C)c1CNc1cc(NC(=O)N2CCCC2)cn2c(C)c(C)nc12 [Example 11, N-(8-((2,6-dimethylbenzyl)amino)-2,3-dimethylimidazo[1,2-a]pyridin-6-yl)pyrrolidine-1-carboxamide] | 6.30 to 7.00 | – |
| Cc1cccc(C)c1CNc1cc(NC(=O)c2ncco2)cn2c(C)c(C)nc12 [Example 14, N-(8-((2,6-dimethylbenzyl)amino)-2,3-dimethylimidazo[1,2-a]pyridin-6-yl)oxazole-2-carboxamide] | 6.30 to 7.00 | – |
| Cc1cccc(C)c1CNc1cc(NC(=O)C(C)(F)F)cn2c(C)c(C)nc12 [Example 16, N-(8-((2,6-dimethylbenzyl)amino)-2,3-dimethylimidazo[1,2-a]pyridin-6-yl)-2,2-difluoropropanamide] | 6.30 to 7.00 | – |
| Cc1cccc(C)c1CNc1cc(NC(=O)C2CC(F)C2)cn2c(C)c(C)nc12 (stereo not shown) [Example 17, N-(8-((2,6-dimethylbenzyl)amino)-2,3-dimethylimidazo[1,2-a]pyridin-6-yl)-3-fluorocyclobutane-1-carboxamide] | 6.30 to 7.00 | – |
| Cc1cccc(C)c1CNc1cc(NS(=O)(=O)C2CCC2)cn2c(C)c(C)nc12 [Example 18, N-(8-((2,6-dimethylbenzyl)amino)-2,3-dimethylimidazo[1,2-a]pyridin-6-yl)cyclobutanesulfonamide] | < 6.30 | – |
| Cc1cccc(C)c1CNc1cc(NC(=O)[C@H](C)N)cn2c(C)c(C)nc12 [Example 19, (S)-2-amino-N-(8-((2,6-dimethylbenzyl)amino)-2,3-dimethylimidazo[1,2-a]pyridin-6-yl)propanamide hydrochloride] | 7.00 to 7.30 | – |
| Cc1cccc(C)c1CNc1cc(NC(=O)[C@@H](C)N)cn2c(C)c(C)nc12 [Example 20, (R)-2-amino-N-(8-((2,6-dimethylbenzyl)amino)-2,3-dimethylimidazo[1,2-a]pyridin-6-yl)propanamide hydrochloride] | 7.00 to 7.30 | – |
| CCNC(=O)Nc1cc(NCc2c(C)cccc2C)c2nc(C)c(C)n2c1 [Example 22, 1-(8-((2,6-dimethylbenzyl)amino)-2,3-dimethylimidazo[1,2-a]pyridin-6-yl)-3-ethylurea] | 7.00 to 7.30 | – |
| CC(=O)OCC(=O)Nc1cc(NCc2c(C)cccc2C)c2nc(C)c(C)n2c1 [Example 25, 2-((8-((2,6-dimethylbenzyl)amino)-2,3-dimethylimidazo[1,2-a]pyridin-6-yl)amino)-2-oxoethyl acetate] | 6.30 to 7.00 | – |
| Cc1cccc(C)c1CNc1cc(NC(=O)C(C)(C)N)cn2c(C)c(C)nc12 [Example 27, 2-amino-N-(8-((2,6-dimethylbenzyl)amino)-2,3-dimethylimidazo[1,2-a]pyridin-6-yl)-2-methylpropanamide hydrochloride] | 7.00 to 7.30 | – |
| Cc1cccc(C)c1CNc1cc(N2CCC2=O)cn2c(C)c(C)nc12 [Example 28, 1-(8-((2,6-dimethylbenzyl)amino)-2,3-dimethylimidazo[1,2-a]pyridin-6-yl)azetidin-2-one] | < 6.30 | – |

Other lines, results leading:

| pIC50 | inhibitory activity against proton pump activity | SMILES |
| --- | --- | --- |
| 6.30 to 7.00 | – | Cc1cccc(C)c1CNc1cc(NC(=O)C2CC2)cn2c(C)c(C)nc12 [Example 2, N-(8-((2,6-dimethylbenzyl)amino)-2,3-dimethylimidazo[1,2-a]pyridin-6-yl)cyclopropanecarboxamide] |
| 6.30 to 7.00 | – | Cc1cccc(C)c1CNc1cc(NC(=O)C2CCC2)cn2c(C)c(C)nc12 [Example 5, N-(8-((2,6-dimethylbenzyl)amino)-2,3-dimethylimidazo[1,2-a]pyridin-6-yl)cyclobutanecarboxamide] |
| 7.00 to 7.30 | – | Cc1cccc(C)c1CNc1cc(NC(=O)N2CCC2)cn2c(C)c(C)nc12 [Example 6, N-(8-((2,6-dimethylbenzyl)amino)-2,3-dimethylimidazo[1,2-a]pyridin-6-yl)azetidine-1-carboxamide] |
| 6.30 to 7.00 | – | Cc1cccc(C)c1CNc1cc(NC(=O)C23CC(C2)C3)cn2c(C)c(C)nc12 [Example 12, N-(8-((2,6-dimethylbenzyl)amino)-2,3-dimethylimidazo[1,2-a]pyridin-6-yl)bicyclo[1.1.1]pentane-1-carboxamide] |
| 7.00 to 7.30 | – | CCC(=O)Nc1cc(NCc2c(C)cccc2C)c2nc(C)c(C)n2c1 [Example 13, N-(8-((2,6-dimethylbenzyl)amino)-2,3-dimethylimidazo[1,2-a]pyridin-6-yl)propionamide] |
| 7.00 to 7.30 | – | Cc1cccc(C)c1CNc1cc(NC(=O)NC2CCC2)cn2c(C)c(C)nc12 [Example 23, 1-cyclobutyl-3-(8-((2,6-dimethylbenzyl)amino)-2,3-dimethylimidazo[1,2-a]pyridin-6-yl)urea hydrochloride] |
| > 7.30 | excellent inhibitory properties | Cc1cccc(C)c1CNc1cc(NC(=O)NC2CC2)cn2c(C)c(C)nc12.Cl [Example 24, 1-cyclopropyl-3-(8-((2,6-dimethylbenzyl)amino)-2,3-dimethylimidazo[1,2-a]pyridin-6-yl)urea hydrochloride] |
| < 6.30 | – | Cc1cccc(C)c1CNc1cc(NC(=O)NC23CC(C2)C3)cn2c(C)c(C)nc12 [Example 29, 1-(bicyclo[1.1.1]pentan-1-yl)-3-(8-((2,6-dimethylbenzyl)amino)-2,3-dimethylimidazo[1,2-a]pyridin-6-yl)urea hydrochloride] |
